Results taken from patent US11926596B2, “Inhibitors of Rho associated coiled-coil containing protein kinase” (KADMON CORPORATION, LLC, priority 2017, dated 2024).

Legend:
[1] = test system: phospho-myosin light chains (ppMlc, Thr18/Ser19) in A7R5 cells; assay: A7R5 in-cell ELISA, phospho-myosin light chain; type: cell-based, rat; settings: for IC50 / inhibition at 10 µM / inhibition at 1 µM: Rattus norvegicus, A7R5 cells; for IC50: 1.5 h, 90 min, read-out: pMLC IC50 A7R5; for inhibition at 10 µM / inhibition at 1 µM: read-out: pMLC % inh A7R5
Method: Determination of compounds ROCK inhibitory activity in A7R5 cells: rat aortic smooth muscle cell line A7R5 cells were maintained and treated in DMEM medium with 10% of fetal bovine serum. Cells were seeded with density of 5,000 cells/well in 96-well plates for 24 hours and subsequently treated 90 min with testing compounds. Cells were then fixed and processed according to the In-Cell ELISA Colorimetric Detection Kit manual (Thermo Scientific). Cellular phospho-myosin light chains (ppMlc, Thr18/Ser19) levels were determined after treatments of DMSO control or test compounds using the In-Cell ELISA kit. The percent inhibition rate was calculated by applying the data obtained with 1 μM (or 10 μM) compound treatment to the formula, [1-(compound/DMSO)]×100%. ppMlc data obtained with 9 points 2-fold serial dilution of compounds were applied to the nonlinear regression curve fit function of the GraphPad Prism software to calculate the In cell IC50s.
A7R5 cells were treated with 9 points 2 fold serial dilution of compounds and ppMlc (T18/S19) levels were determined in order to calculate cellular IC50s of the compounds.
Two steps of measurements were adopted for pMLC/A7R5 IC50. Percent inhibition rates were calculated with a single dose (1 μM or 10 μM) compounds treatment to screen for active compounds and then cellular IC50s were measured only in compounds that have over 50% of inhibition rates.

[2] = target: T1, recombinant ROCK2 (amino acids 1-552) (Homo sapiens, UniProt O75116); assay: Z'-lyte kinase assay, ROCK2; type: biochemical; settings: for inhibition at 3 µM / inhibition at 0.5 µM / inhibition at 1 µM: read-out: ROCK2 % inh
T1 construct: ROCK2 (amino acids 1-552) proteins were purchased from ThermoFisher Scientific; purchased ThermoFisher Scientific
T1 sequence (O75116 1-552): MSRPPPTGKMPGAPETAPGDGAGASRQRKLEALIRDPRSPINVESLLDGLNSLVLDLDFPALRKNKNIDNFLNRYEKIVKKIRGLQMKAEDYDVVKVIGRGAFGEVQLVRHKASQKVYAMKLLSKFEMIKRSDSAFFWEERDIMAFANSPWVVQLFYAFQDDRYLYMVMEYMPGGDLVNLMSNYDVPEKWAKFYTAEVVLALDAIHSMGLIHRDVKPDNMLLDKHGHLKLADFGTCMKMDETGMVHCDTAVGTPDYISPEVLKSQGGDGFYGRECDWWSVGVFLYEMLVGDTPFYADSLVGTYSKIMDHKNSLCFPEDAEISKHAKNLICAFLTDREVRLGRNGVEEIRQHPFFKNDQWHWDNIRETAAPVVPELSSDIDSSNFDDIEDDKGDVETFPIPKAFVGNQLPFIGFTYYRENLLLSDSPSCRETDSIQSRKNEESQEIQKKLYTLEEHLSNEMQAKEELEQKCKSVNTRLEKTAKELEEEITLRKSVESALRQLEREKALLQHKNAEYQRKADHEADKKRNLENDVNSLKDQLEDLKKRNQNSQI
Method: (§1) Determination of compounds ROCK inhibitory activity in vitro (Z'lyte assay): recombinant ROCK1 (amino acids 1-535) and ROCK2 (amino acids 1-552) proteins were purchased from ThermoFisher Scientific. Compounds activities were measured by Z′-lyte kinase kit (ThermoFisher Scientific) and IC50s were calculated.
(§2) Table 2, below, provides in vitro and cellular inhibition of ROCKs by compounds of the invention. Compounds activities were measured by Z′-lyte kinase kit (ThermoFisher Scientific). […] IC50s were calculated using the GraphPad Prism software with kinase activities data that were collected from points 9 serial dilution of compounds treatment. The ROCK inhibition in A7R5 cells and NIH3T3 (Acta2-Luc) cells was performed as described above.

[3] = target: T2, recombinant ROCK1 (amino acids 1-535) (Homo sapiens, UniProt Q13464); assay: Z'-lyte kinase assay, ROCK1; type: biochemical; settings: for inhibition at 3 µM / inhibition at 0.5 µM: read-out: ROCK1 % inh
T2 construct: recombinant ROCK1 (amino acids 1-535) and ROCK2; purchased ThermoFisher Scientific
T2 sequence (Q13464 1-535): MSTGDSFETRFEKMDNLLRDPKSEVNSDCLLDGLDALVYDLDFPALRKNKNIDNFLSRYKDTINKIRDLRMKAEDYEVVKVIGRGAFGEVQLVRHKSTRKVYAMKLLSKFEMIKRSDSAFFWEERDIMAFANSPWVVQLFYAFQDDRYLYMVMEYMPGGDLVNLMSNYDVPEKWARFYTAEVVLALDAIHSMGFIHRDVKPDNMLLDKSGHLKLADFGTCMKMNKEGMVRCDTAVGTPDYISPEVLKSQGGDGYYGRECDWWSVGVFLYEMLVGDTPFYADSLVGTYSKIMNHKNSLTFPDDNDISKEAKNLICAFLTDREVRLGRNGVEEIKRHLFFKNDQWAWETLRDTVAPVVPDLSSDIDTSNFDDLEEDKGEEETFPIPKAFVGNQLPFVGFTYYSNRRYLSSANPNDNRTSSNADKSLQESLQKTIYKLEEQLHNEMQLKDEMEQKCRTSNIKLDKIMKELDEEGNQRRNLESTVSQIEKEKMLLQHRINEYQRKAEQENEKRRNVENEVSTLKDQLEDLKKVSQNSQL
Method: as §1, §2

Compound: CNC(C(=O)Nc1ccc2[nH]ncc2c1)c1ccc(C)cc1 (stereo not drawn) [Example 28, N-(1H-indazol-5-yl)-2-(methylamino)-2-(p-tolyl)acetamide]
- IC50 [1]: 834 nM
- IC50 [2]: 21.2 nM
- inhibition at 3 µM [2]: 98.8%
- IC50 [3]: 17.8 nM
- inhibition at 3 µM [3]: 99%

Compound: COc1cccc(C(NCCN(C)C)C(=O)Nc2ccc3[nH]ncc3c2)c1 (stereo not drawn) [Example 34, 2-((2-(dimethylamino)ethyl)amino)-N-(1H-indazol-5-yl)-2-(3-methoxyphenyl)acetamide]
- inhibition at 10 µM [1]: 49%
- IC50 [2]: 438 nM

Compound: CNC(C(=O)Nc1ccc2[nH]ncc2c1)c1ccc(-c2ccccc2OC)cc1 (stereo not drawn) [Example 32, N-(1H-indazol-5-yl)-2-(2′-methoxy-[1,1′-biphenyl]-4-yl)-2-(methylamino)acetamide]
- inhibition at 10 µM [1]: 5%
- IC50 [2]: > 1000 nM
- IC50 [3]: 310 nM

Compound: O=C(Nc1ccc2[nH]ncc2c1)C1CCCN1 (stereo not drawn) [Example 10, N-(1H-indazol-5-yl)pyrrolidine-2-carboxamide]
- inhibition at 1 µM [1]: 1%

Compound: O=C(Nc1ccc2[nH]ncc2c1)C1NCCc2ccccc21 (stereo not drawn) [Example 5, N-(1H-indazol-5-yl)-1,2,3,4-tetrahydroisoquinoline-1-carboxamide]
- IC50 [1]: 35800 nM
- IC50 [2]: 77 nM
- IC50 [3]: 38 nM

Compound: CCNC(C(=O)Nc1ccc2[nH]ncc2c1)c1ccccc1 (stereo not drawn) [Example 21, 2-(ethylamino)-N-(1H-indazol-5-yl)-2-phenylacetamide]
- IC50 [1]: 2390 nM
- inhibition at 3 µM [2]: 95.8%
- inhibition at 3 µM [3]: 91.5%

Compound: CCNC(C(=O)Nc1ccc2[nH]ncc2c1)c1ccc(F)cc1 (stereo not drawn) [Example 23, 2-(ethylamino)-2-(4-fluorophenyl)-N-(1H-indazol-5-yl)acetamide]
- IC50 [1]: 1060 nM
- IC50 [2]: 43 nM
- inhibition at 3 µM [2]: 95.3%
- IC50 [3]: 495 nM
- inhibition at 3 µM [3]: 94.3%

Compound: CNC(C(=O)Nc1ccc2[nH]ncc2c1)c1ccc(F)c(OC)c1 (stereo not drawn) [Example 48, 2-(4-fluoro-3-methoxyphenyl)-N-(1H-indazol-5-yl)-2-(methylamino)acetamide]
- IC50 [2]: 71 nM
- inhibition at 0.5 µM [2]: 76%
- inhibition at 0.5 µM [3]: 87%

Compound: CC1NC(C(=O)Nc2ccc3[nH]ncc3c2)c2ccccc21 (stereo not drawn) [Example 9, N-(1H-indazol-5-yl)-3-methylisoindoline-1-carboxamide]
- inhibition at 1 µM [1]: 4%

Compound: O=C(Nc1ccc2[nH]ncc2c1)C1NCc2ccccc21 (stereo not drawn) [Example 6, N-(1H-indazol-5-yl)isoindoline-1-carboxamide]
- inhibition at 10 µM [1]: 1%
- IC50 [2]: > 1000 nM
- IC50 [3]: 421 nM

Compound: CNC(C(=O)Nc1ccc2[nH]ncc2c1)c1ccc(-c2ccccc2F)cc1 (stereo not drawn) [Example 33, 2-(2′-fluoro-[1,1′-biphenyl]-4-yl)-N-(1H-indazol-5-yl)-2-(methylamino)acetamide]
- inhibition at 10 µM [1]: 48%
- inhibition at 1 µM [2]: 66.5%

Compound: O=C(Nc1ccc2[nH]ncc2c1)C1CCNC1 (stereo not drawn) [Example 11, N-(1H-indazol-5-yl)pyrrolidine-3-carboxamide]
- inhibition at 1 µM [1]: 1%

Compound: CNC(C(=O)Nc1ccc2[nH]ncc2c1)c1ccc(-c2ccc(OC)cc2)cc1 (stereo not drawn) [Example 45, N-(1H-indazol-5-yl)-2-(4′-methoxy-[1,1′-biphenyl]-4-yl)-2-(methylamino)acetamide]
- inhibition at 10 µM [1]: 4%
- inhibition at 1 µM [2]: 22%

Compound: COCCNC(C(=O)Nc1ccc2[nH]ncc2c1)c1cccc(OC)c1 (stereo not drawn) [Example 46, N-(1H-indazol-5-yl)-2-((2-methoxyethyl)amino)-2-(3-methoxyphenyl)acetamide]
- inhibition at 10 µM [1]: 27%
- inhibition at 1 µM [2]: 67%

Compound: CNC(C(=O)Nc1ccc2[nH]ncc2c1)c1ccc(OC(C)C)cc1 (stereo not drawn) [Example 44, N-(1H-indazol-5-yl)-2-(4-isopropoxyphenyl)-2-(methylamino)acetamide]
- inhibition at 10 µM [1]: 42%
- IC50 [2]: 455 nM

Compound: NC(C(=O)Nc1ccc2[nH]ncc2c1)c1ccc(Cl)cc1 (stereo not drawn) [Comp2, reference compound]
- IC50 [1]: 4410 nM
- inhibition at 3 µM [2]: 97.5%
- inhibition at 3 µM [3]: 92.2%

Compound: Cc1ccc(C(NC(C)C)C(=O)Nc2ccc3[nH]ncc3c2)cc1 (stereo not drawn) [Example 29, N-(1H-indazol-5-yl)-2-(isopropylamino)-2-(p-tolyl)acetamide]
- IC50 [1]: 934 nM
- IC50 [2]: 6.3 nM
- inhibition at 3 µM [2]: 98.8%
- IC50 [3]: 65.7 nM
- inhibition at 3 µM [3]: 99%

Compound: CCNC(C(=O)Nc1ccc2[nH]ncc2c1)c1cccc(C)c1 (stereo not drawn) [Example 49, 2-(ethylamino)-N-(1H-indazol-5-yl)-2-(m-tolyl)acetamide]
- IC50 [2]: 87 nM
- inhibition at 0.5 µM [2]: 76%
- inhibition at 0.5 µM [3]: 88%

Compound: CC(C)(C)NC(C(=O)Nc1ccc2[nH]ncc2c1)c1ccccc1 (stereo not drawn) [Example 37, 2-(tert-butylamino)-N-(1H-indazol-5-yl)-2-phenylacetamide]
- IC50 [1]: 2600 nM
- IC50 [2]: 74.3 nM
- inhibition at 3 µM [2]: 98.8%
- IC50 [3]: 98.1 nM
- inhibition at 3 µM [3]: 99%

Compound: CNC(C(=O)Nc1ccc2[nH]ncc2c1)c1ccccn1 (stereo not drawn) [Example 40, N-(1H-indazol-5-yl)-2-(methylamino)-2-(pyridin-2-yl)acetamide]
- inhibition at 10 µM [1]: 37%
- IC50 [2]: 453 nM
- IC50 [3]: 143 nM

Compound: CNC(C(=O)Nc1ccc2[nH]ncc2c1)c1ccccc1OC (stereo not drawn) [Example 35, N-(1H-indazol-5-yl)-2-(2-methoxyphenyl)-2-(methylamino)acetamide]
- inhibition at 1 µM [1]: 16%
- inhibition at 1 µM [2]: 71%

Compound: CNC(C(=O)N(CCN(C)C)c1ccc2[nH]ncc2c1)c1cccc(OC)c1 (stereo not drawn) [Example 7, N-(2-(dimethylamino)ethyl)-N-(1H-indazol-5-yl)-2-(3-methoxyphenyl)-2-(methylamino)acetamide]
- inhibition at 10 µM [1]: 2%
- IC50 [2]: 1630 nM
- inhibition at 1 µM [2]: 11%
- inhibition at 0.5 µM [3]: 16%

Compound: CNC(C(=O)Nc1ccc2[nH]ncc2c1)c1cccc(OC(F)(F)F)c1 (stereo not drawn) [Example 50, N-(1H-indazol-5-yl)-2-(methylamino)-2-(3-(trifluoromethoxy)-phenyl)acetamide]
- IC50 [2]: 21 nM
- inhibition at 0.5 µM [2]: 93%
- inhibition at 0.5 µM [3]: 93%

Compound: CC(C)NC(C(=O)Nc1ccc2[nH]ncc2c1)c1ccc(Cl)cc1 (stereo not drawn) [Example 18, 2-(4-chlorophenyl)-N-(1H-indazol-5-yl)-2-(isopropylamino)acetamide]
- IC50 [1]: 2510 nM
- cellular ROCK inhibition compared with Comparative Example 2 ([1]; phosphorylation of the ROCK target pMLC in A7R5 cells): enhanced
- inhibition at 3 µM [2]: 94.1%
- inhibition at 3 µM [3]: 89.6%

Compound: O=C(Nc1ccc2[nH]ncc2c1)C1CCCCN1 (stereo not drawn) [Example 13, N-(1H-indazol-5-yl)piperidine-2-carboxamide]
- inhibition at 1 µM [1]: 11%

Compound: O=C(Nc1ccc2[nH]ncc2c1)C1CNc2ccccc2C1 (stereo not drawn) [Example 3, N-(1H-indazol-5-yl)-1,2,3,4-tetrahydroquinoline-3-carboxamide]
- inhibition at 1 µM [1]: 25%
- inhibition at 3 µM [2]: 0%
- inhibition at 3 µM [3]: 0%

Compound: O=C(Nc1ccc2[nH]ncc2c1)[C@@H]1CC[C@H](c2ccccc2)N1 [Example 12, (2S,5R)-N-(1H-indazol-5-yl)-5-phenylpyrrolidine-2-carboxamide]
- inhibition at 1 µM [1]: 1%

Compound: NC(C(=O)Nc1ccc2[nH]ncc2c1)c1ccccc1 (stereo not drawn) [Comp3, reference compound]
- IC50 [1]: 10900 nM
- inhibition at 3 µM [2]: 97.4%
- inhibition at 3 µM [3]: 91.5%

Compound: Cc1ccc(C(NC2CC2)C(=O)Nc2ccc3[nH]ncc3c2)cc1 (stereo not drawn) [Example 31, 2-(cyclopropylamino)-N-(1H-indazol-5-yl)-2-(p-tolyl)acetamide]
- inhibition at 10 µM [1]: 35%
- IC50 [2]: > 1000 nM
- IC50 [3]: 228 nM

Compound: CCOc1ccc(C(NC)C(=O)Nc2ccc3[nH]ncc3c2)cc1 (stereo not drawn) [Example 43, 2-(4-ethoxyphenyl)-N-(1H-indazol-5-yl)-2-(methylamino)acetamide]
- inhibition at 10 µM [1]: 4%
- IC50 [2]: 73 nM
- inhibition at 1 µM [2]: 98%

Compound: O=C(Nc1ccc2[nH]ncc2c1)C1CNCc2ccccc21 (stereo not drawn) [Example 8, N-(1H-indazol-5-yl)-1,2,3,4-tetrahydroisoquinoline-4-carboxamide]
- IC50 [1]: 2620 nM
- inhibition at 1 µM [2]: 76.7%

Compound: Cc1ccc(C(N)C(=O)Nc2ccc3[nH]ncc3c2)cc1 (stereo not drawn) [Comp5, reference compound]
- IC50 [2]: 33 nM
- inhibition at 1 µM [2]: 96.2%
- IC50 [3]: 1310 nM
- inhibition at 3 µM [3]: 99%
